Reference: patent US6794365B2, “Malonic acid derivatives, processes for their preparation their use and pharmaceutical compositions containing them” (Aventis Pharma Deutschland GmbH, priority 2000, dated 2004)
Counter-ions that a name gives are not always drawn. Like-named read-outs stand apart in the source and are kept apart here.

What was measured:
factor Xa [1] = target: T1, factor Xa (Homo sapiens, UniProt P00742); assay: In vitro Factor Xa assay (Test 1a), chromogenic substrate S-2765; assay type: biochemical; design: purchased Enzyme Research Laboratories, Inc; South Bend, Ind; conditions: Factor Xa inhibitory activity; Ki from IC50 corrected for substrate competition; 25° C., pH 7.8; read-out: Ki (FXa)
Experimental: Purified enzymes are used in chromogenic assays. To determine the inhibition constant, the IC50 value is corrected for competition with substrate using the formula: […] where Km is the Michaelis-Menten-constant (Y.-C. Chen and W. H. Prusoff, Biochem. Pharmacol. 22: […] (1973), which is incorporated herein by reference). TBS-PEG buffer (50 mM Tris-Cl, pH 7.8, 200 mM NaCl, 0.05% (w/v) PEG-8000, 0.02% (w/v) NaN3) is used for this assay. The IC50 is determined by combining in appropriate wells of a Costar half-area microtiter plate 25 μl human factor Xa (Enzyme Research Laboratories, Inc.; South Bend, Ind.) in TBS-PEG; 40 μl 10% (v/v) DMSO in TBS-PEG (uninhibited control) or various concentrations of the compound to be tested diluted in 10% (v/v) DMSO in TBS-PEG; and substrate S-2765 (N-benzyloxycarbonyl-[…]-nitroanilide; Kabi Pharmacia, Inc.; Franklin Ohio) in TBS-PEG. […] The initial velocity of chromogenic substrate hydrolysis is measured by the change in absorbance at 405 nm using a Bio-tek Instruments kinetic plate reader ([…] 25° C. during the linear portion of the time course (usually 1.5 min after addition of substrate).

thrombin and factor Xa = conditions: rate of inactivation thrombin vs factor Xa; cited from earlier work
[2] = TAP at less than about two fold aPTT prolongation; heparin at doses causing five fold aPTT increase; cited from earlier work
factor Xa [3] = target: T1, factor Xa; conditions: cited from earlier work
[4] = recombinantly-produced inhibitor; cited from earlier work
[5] = subcutaneous; cited from earlier work

T1 sequence (P00742 235-488 limits assumed): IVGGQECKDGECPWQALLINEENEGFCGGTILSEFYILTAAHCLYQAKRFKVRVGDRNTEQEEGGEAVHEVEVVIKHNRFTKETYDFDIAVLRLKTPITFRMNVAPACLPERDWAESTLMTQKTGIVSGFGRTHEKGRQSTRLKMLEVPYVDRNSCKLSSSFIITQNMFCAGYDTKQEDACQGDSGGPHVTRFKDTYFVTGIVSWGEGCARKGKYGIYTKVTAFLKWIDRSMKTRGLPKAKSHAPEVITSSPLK
T1 sequence (P00742 41-179 partner limits assumed): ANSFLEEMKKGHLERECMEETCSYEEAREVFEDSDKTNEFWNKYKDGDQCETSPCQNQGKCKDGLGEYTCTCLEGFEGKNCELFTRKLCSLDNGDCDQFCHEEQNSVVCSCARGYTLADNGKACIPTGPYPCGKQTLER

**Q.** Which Ki (factor Xa [1]) does the source give for CN(Cc1ccccc1)C(=O)C(Cc1ccc(C(=N)N)cc1)C(=O)N[C@H](C(=O)N[C@@H](CCCNC(=N)N)C(N)=O)C1CCCCC1 (stereo partly drawn) [Example 144, N-Benzyl-2-(4-carbamimidoyl-benzyl)-N′-[(S)-(1-(S)-carbamoyl-4-guanidino-butylcarbamoyl)-cyclohexyl-methyl]-N-methyl-malonamide trifluoroacetic acid salt] here?
**A.** 11 nM

**Q.** For heparin [reference compound], which “thrombin inactivated faster than factor Xa” value (thrombin and factor Xa) is on record?
**A.** approximately 100 times

**Q.** What about the “prevention of high-shear arterial thrombosis and reduced flow in graft” value [2] of the same molecule?
**A.** did not prevent thrombosis

**Q.** Which results are given for “tick anticoagulant peptide (YNRLCIKPRDWIDECDSNEGGERAYFRNGKGGCDSFWICPEDHTGADYYSSYRDCFNACI; UniProt P17726 1-60, looked up) [TAP]”?
**A.** Ki (factor Xa [3]): ~0.5 nM; prevention of clotting [4]: prevent clotting; prevention of high-shear arterial thrombosis and reduced flow in graft [2]: effectively prevents

B1: antistasin (protein, UniProt P15358 18-136, looked up)
Antistasin: QGPFGPGCEEAGCPEGSACNIITDRCTCSGVRCRMHCPHGFQRSRYGCEFCKCRLEPMKATCDISECPEGMMCSRLTNKCDCKIDINCRKTCPNGLKRDKLGCEYCECRPKRKLIPRLS
**Q.** With B1 as the molecule, how does the Ki (factor Xa [3]) read?
**A.** 0.05 nM

**Q.** What about the prevention of clotting [4] of the same molecule?
**A.** prevent clotting

**Q.** And the “treatment effect in DIC model” value [5]?
**A.** effective treatment
